Type in all cases: cell-based
Experiment [1] deals with lung cancer cell DMS273. In words: Cancer growth inhibitory activity, lung cancer cell DMS273. As to conditions: for Cancer growth inhibitory activity (average log GI50): lung cancer cell DMS273; for cancer growth inhibitory activity relative to oxaliplatin: lung cancer cells, higher than oxaliplatin.
For experiment [2], the system named is renal cancer cell RXF631L. In words: Cancer growth inhibitory activity, renal cancer cell RXF631L. As to conditions: for Cancer growth inhibitory activity (average log GI50): renal cancer cell RXF631L.
For experiment [3], the system named is gastric cancer cell MKN-7. The experiment in a line: Cancer growth inhibitory activity, gastric cancer cell MKN-7. As to conditions: for Cancer growth inhibitory activity (average log GI50): gastric cancer cell MKN-7.
The subject of experiment [4] is colon cancer cell HT-29. In words: Cancer growth inhibitory activity, colon cancer cell HT-29. The settings on record: for Cancer growth inhibitory activity (average log GI50): colon cancer cell HT-29; for cancer growth inhibitory activity relative to oxaliplatin: colon cancer cells, stronger than oxaliplatin.
Experiment [5] has as its system 39 kinds of cancer cells. In words: In vitro cancer growth inhibitory activity, sulforhodamine B, panel of 39 cancer cell lines. As to conditions: average over 39 kinds of cancer cells, 2 days culture with sample. On the procedure: The in vitro cancer growth inhibitory activity was assessed according to the method described in Jpn J Cancer Chemother, 24, 129 (1997) and Cancer Chemothr. Pharmacol., 52 Suppl 1, S74-79 (2003). Namely, a total of 39 different kinds of cancer cells at logarithmic growth phase were separately seeded into wells of 96 well plates, and incubated at 37° C. for 1 day. The cancer cells used were 5 kinds of breast cancer cells (HBC-4, BSY-1, HBC-5, MCF-7, MDA-MB-231), 6 kinds of glioma cancer cells (U251, SF-268, SF-295, SF-539, SNB-75, SNB-78), 5 kinds of colon cancer cells (HCC2998, KM-12, HT-29, HCT-15, HCT-116), 7 kinds of lung cancer cells (NCI-H23, NCL-H226, NCL-H522, NCL-H460, A549, DMS273, DMS114), 1 kind of melanoma cell (LOX-IMVI), 5 kinds of ovarian cancer cells (OVCAR-3, OVCAR-4, OVCAR-5, OVCAR-8, SK-OV-3), 2 kinds of renal cancer cells (RXF-631L, ACHN), 6 kinds of gastric cancer cells (St-4, MKN1, MKN7, MKN28, MKN45, MKN74), and 2 kinds of prostate cancer cells (DU-145, PC-3). Each sample solution was added to the wells on the following day, and culture was continued at 37° C. for another 2 days. Then, the degree of cell growth was determined by the colorimetric measurement using sulforhodamine B. The cancer growth inhibitory activity was assessed based on the average log GI50 (GI50 indicates the concentration required to inhibit 50% of cell growth) against 39 kinds of cancer cells.

Turning to `N[C@@H]1CCCC[C@H]1N.N[C@@H]1CCCC[C@H]1N.O.O.O.O.O=C([O-])[C@@H](O)[C@H](O)C(=O)[O-].O=[N+]([O-])[O-].[Pt+2].[Pt+2]` (relative stereo) [[{Pt(R,R-dach)}2(μ-D-tartH)]NO3•4H2O, D-tartrate-bridged dinuclear 1R,2R-1,2-trans-cyclohexanediamine platinum(II) complex nitrate], the “Cancer growth inhibitory activity (average log GI50)” value in experiment [1] is listed as −7.46; in experiment [2], −6.03; in experiment [3] it was −6.02; in experiment [4], −5.96. Besides, the “cancer growth inhibitory activity relative to oxaliplatin” value is listed as “about 20 times” in experiment [1]; “about 100 times” in experiment [2] (renal cancer cells, stronger than oxaliplatin); “about 10 times” in experiment [3] (gastric cancer cells, stronger than oxaliplatin); “about 10 times” in experiment [4].
As to `O=C1[O][Pt-2]2([NH2+]C3CCCC[C@H]3[NH2+]2)[O]C1=O` (stereo partly drawn) [Oxaliplatin, oxalato(1R,2R-1,2-cyclohexanediamine)platinum(II), reference compound], the “Cancer growth inhibitory activity (average log GI50)” value is reported as −6.06 in experiment [1]; −4.13 in experiment [2]; −4.68 in experiment [3]; −5.03 in experiment [5]; −4.91 in experiment [4].
With “L-tartrate-bridged dinuclear 1R,2R-1,2-trans-cyclohexanediamine platinum(II) complex nitrate [[{Pt(R,R-dach)}2(μ-L-tartH)]NO3•4H2O]”, the “Cancer growth inhibitory activity (average log GI50)” value in experiment [1] is reported as −7.31; in experiment [2], −4.92; in experiment [3] it was −4.98; in experiment [5], −5.99; in experiment [4], −7.00. The “cancer growth inhibitory activity relative to oxaliplatin” value is “about 20 times” in experiment [1] and “about 100 times” in experiment [4].
As for “L-tartrate-bridged dinuclear 1S,2S-1,2-trans-cyclohexanediamine platinum(II) complex nitrate [[{Pt(S,S-dach)}2(μ-L-tartH)]NO3•4H2O]”, in experiment [5], the “Cancer growth inhibitory activity (average log GI50)” value was −5.36.

Source of the values: patent publication US7943793B2, “Optically active organic acidate-bridged dinuclear platinum(II) complex” (Osaka University, priority 2007, dated 2011).
